Structures can show the parent of a compound that is named as a salt.

The subject of one data set is reactive oxygen species (ROS).
Assay: not given
As to conditions: human patients with rheumatoid arthritis and osteoarthritis, pharmacological doses; cited from earlier work.
For `CN1C(C(=O)Nc2ccccn2)=C(O)c2ccccc2S1(=O)=O` [Piroxicam], the “reduction of levels of ROS” value was 25%.

Tested on in a further data set: not given
Assay: not given
Settings: not given
As a reminder, the melting point is the temperature, or range, at which the solid turns liquid. With `Cc1cc(C#Cc2ccc(Cl)cc2)ccc1OCC(C)NCc1ccc(CN)cc1` (stereo not shown) (as salt: HCl) [Compound 1, N-[2-[4-[(4-chlorophenyl)ethynyl]-2-methylphenoxy]-1-methylethyl]-1,4-benzenedimethanamine], the melting point is greater than 300 °C. Consider `CCC(COc1ccc(C#Cc2ccc(Cl)cc2)cc1C)NCc1ccc(CN)cc1` (stereo not shown) (as salt: HCl) [Compound 23, N-[1-[[4-[(4-chlorophenyl)ethynyl]-2-methylphenoxy]methyl]propyl]-1,4-benzenedimethanamine], for which the melting point fell in the range of 261.5 to 264 °C. Still for that read-out and setting: in the case of `Cc1ccc(C#Cc2ccc(OCC(C)NCc3ccc(CN)cc3)c(Cl)c2)cc1` (stereo not shown) (as salt: HCl) [Compound 24, N-[2-[2-chloro-4-[(4-methylphenyl)ethynyl]phenoxy]-1-methylethyl]-1,4-benzenedimethanamine] it was greater than 300 °C; in that of `CC(COc1ccc(C#Cc2ccc(Cl)cc2)cc1Cl)NCc1ccc(CN)cc1` (stereo not shown) (as salt: HCl) [Compound 25, N-[2-[2-chloro-4-[(4-chlorophenyl)ethynyl]phenoxy]-1-methylethyl]-1,4-benzenedimethanamine], greater than 300 °C; in that of `CC(COc1ccc(C#Cc2ccc(F)cc2)cc1Cl)NCc1ccc(CN)cc1` (stereo not shown) (as salt: HCl) [Compound 26, N-[2-[2-chloro-4-[(4-fluorophenyl)ethynyl]phenoxy]-1-methylethyl]-1,4-benzenedimethanamine], greater than 300 °C. Compound `Cc1cc(C#Cc2ccc(Cl)cc2)ccc1OCCNCc1ccc(CNCCC2CCCN2C)cc1` (stereo not shown) [Compound 13, N^1-[2-[4-[(4-chlorophenyl)ethynyl]-2-methylphenoxy]ethyl]-N^4-[2-(1-methyl-2-pyrrolidinyl)ethyl]-1,4-benzenedimethanamine] gave a melting point of 251 to 254 °C.

For another data set, the target named is T1, NADPH-oxidase (Homo sapiens, UniProt P04839).
T1 construct: endogenous in cells; host or cells: human neutrophils isolated from buffy coat
T1 sequence (P04839 1-570): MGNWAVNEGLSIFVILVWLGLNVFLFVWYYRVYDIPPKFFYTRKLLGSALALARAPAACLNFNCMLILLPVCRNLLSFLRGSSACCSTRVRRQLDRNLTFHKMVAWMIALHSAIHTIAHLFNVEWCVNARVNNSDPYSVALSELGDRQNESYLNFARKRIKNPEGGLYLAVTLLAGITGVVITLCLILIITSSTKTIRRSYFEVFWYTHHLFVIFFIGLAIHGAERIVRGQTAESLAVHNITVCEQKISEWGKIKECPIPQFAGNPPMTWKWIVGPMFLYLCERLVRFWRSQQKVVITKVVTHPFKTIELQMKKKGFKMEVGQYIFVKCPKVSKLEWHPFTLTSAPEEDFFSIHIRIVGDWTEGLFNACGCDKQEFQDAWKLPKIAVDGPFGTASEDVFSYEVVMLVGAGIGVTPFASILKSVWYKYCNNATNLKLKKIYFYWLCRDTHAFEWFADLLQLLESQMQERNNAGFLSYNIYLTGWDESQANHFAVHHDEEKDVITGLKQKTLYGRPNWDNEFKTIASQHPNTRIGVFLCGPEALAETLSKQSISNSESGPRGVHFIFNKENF
The data set can be described thus: Oxidase Inhibition Assay (PMA-stimulated superoxide-mediated reduction of Cytochrome c, whole cells). It is filed as cell-based. As to conditions: QC wells G-H, 2.5 μL of 10 μM DPI, at 250 nm (so in the source), agonist added. The method, then:
Whole cells (human neutrophils) are incubated with a pro-inflammatory agonist phorbol myristate acetate (PMA) in the presence or absence of test compound to measure the superoxide-mediated reduction of Cytochrome c at 550 nm. Inhibition of the oxidase is determined by a decreased absorbance at 550 nm, in response to test compound, relative to the absorbance seen with a vehicle control.
The buffy coat from one unit of blood is split evenly into four 50 mL tubes. To each tube 30 mL 3% Dextran (in 0.9% NaCl) is added and the tubes are inverted to mix. Tubes are allowed to sit undisturbed for 25 minutes. The resulting supernatant is recovered into four fresh tubes and centrifuged for 10 minutes at 600×g, 4° C. The supernatant is discarded and pellets are resuspended in 35 mL 0.9% saline. 10 mL Ficoll-Paque PLUS (Pharmacia Biotech AB) is layered beneath the cell suspension and centrifuged at 600×g for 40 minutes at room temperature. The supernatant is again discarded and tubes are tapped to loosen the resulting pellets. 20 mL 0.2% ice cold saline is added for 30 seconds followed by 20 mL 1.6% ice cold saline to lyse the remaining erythrocytes in the pellets. The pellets are centrifuged for 10 minutes at 600×g, 4° C., and the supernatant is discarded. The neutrophil pellets are resuspended in HBSS-glucose buffer (1 mg/mL), adding 2.5 mL to each tube for a total volume of 10 mL. The cell suspension is then counted on a hemocytometer.
The cell suspension is diluted to a concentration of 5×10^6/mL in HBSS-glucose and treated with 1 μg/mL Cytochalasin B (5 mg/mL DMSO) for 10 minutes at 37° C. in a shaking water bath. Cells are diluted to 6×10^5 cells/mL in 92 μM Cytochrome C for a final concentration of 5×10^4 cells/well.
The NADPH-oxidase assay is run on a Biomek 2000 workstation. The workstation adds 2.5 μL compound per well from source plates plus 12.5 μL per well 4 μM PMA (agonist). This volume is brought up to 100 μL total per well in the assay plates upon the addition of the prepared cells (85 μL). The final concentration of drug is 25 μM and PMA is 0.5 μM under these conditions.
The QC curve is a dose-response curve (from about 31.25 nM to about 4000 nM) for competitive binding against a known oxidase inhibitor such as DPI (diphenylene iodonium chloride). The format used for each compound tested is as follows:
The plates are incubated for 1 hour at 37° C. without CO2. The plates are then incubated at room temperature for 30 minutes and the absorbance is read at 550 nm.
As a reminder, the inhibition is the change of the read-out against control, counted positive when it falls. A higher inhibition goes with a strong effect. As to `c1ccc2c(c1)[I+]c1ccccc1-2` [DPI, diphenylene iodoniumchloride], the inhibition at 10 µM is roughly 70%.

The same data set, now with this note: human neutrophils, PMA 0.5 μM, absorbance at 550 nm.
As usually defined, the IC50 is the point on the concentration scale where inhibition reaches its midpoint. Read a low IC50 as higher potency. On to `Cc1cc(C#Cc2ccc(Cl)cc2)ccc1OCCNCc1ccc(CNCCC2CCCN2C)cc1` (stereo not shown) [Compound 13, N^1-[2-[4-[(4-chlorophenyl)ethynyl]-2-methylphenoxy]ethyl]-N^4-[2-(1-methyl-2-pyrrolidinyl)ethyl]-1,4-benzenedimethanamine], for which the 50% inhibitory concentration (IC50) is 1000 nM. Still for that read-out and setting: in the case of `Cc1cc(C#Cc2ccc(Cl)cc2)ccc1OCCNCc1ccc(CNCCCOC(=O)C2CCCCN2)cc1` (stereo not shown) [Compound 18, 3-[[[4-[[[2-[4-[(4-chlorophenyl)ethynyl]-2-methylphenoxy]ethyl]amino]methyl]phenyl]methyl]amino]propyl ester 2-piperidinecarboxylic acid] it was 3010 nM; in that of `Cc1cc(C#Cc2ccc(Cl)cc2)ccc1OCCNCc1ccc(CNC(C)(C)C)cc1` [Compound 19, N^1-[2-[4-[(4-chlorophenyl)ethynyl]-2-methylphenoxy]ethyl]-N^4-(1,1-dimethylethyl)-1,4-benzenedimethanamine], 3330 nM; in that of `Cc1cc(C#Cc2ccc(Cl)cc2)ccc1OCCNCc1ccc(CN)cc1` [Compound 21, N-[2-[4-[(4-chlorophenyl)ethynyl]-2-methylphenoxy]ethyl]-1,4-benzenedimethanamine], 1770 nM. The same measure, in the same setting: then `CC(COc1ccc(C#Cc2ccccc2)cc1Cl)NCc1ccc(CN)cc1` (stereo not shown) [Compound 22, N-[2-[2-chloro-4-(phenylethynyl)phenoxy]-1-methylethyl]-1,4-benzenedimethanamine], with 850 nM; and `CCC(COc1ccc(C#Cc2ccc(Cl)cc2)cc1C)NCc1ccc(CN)cc1` (stereo not shown) [Compound 23, N-[1-[[4-[(4-chlorophenyl)ethynyl]-2-methylphenoxy]methyl]propyl]-1,4-benzenedimethanamine], with 800 nM; and `Cc1ccc(C#Cc2ccc(OCC(C)NCc3ccc(CN)cc3)c(Cl)c2)cc1` (stereo not shown) [Compound 24, N-[2-[2-chloro-4-[(4-methylphenyl)ethynyl]phenoxy]-1-methylethyl]-1,4-benzenedimethanamine], with 700 nM.

Take `CC(COc1ccc(C#Cc2ccc(Cl)cc2)cc1Cl)NCc1ccc(CN)cc1` (stereo not shown) [Compound 25, N-[2-[2-chloro-4-[(4-chlorophenyl)ethynyl]phenoxy]-1-methylethyl]-1,4-benzenedimethanamine]: the IC50 came to 700 nM. Same read-out and setting: in the case of `CC(COc1ccc(C#Cc2ccc(F)cc2)cc1Cl)NCc1ccc(CN)cc1` (stereo not shown) [Compound 26, N-[2-[2-chloro-4-[(4-fluorophenyl)ethynyl]phenoxy]-1-methylethyl]-1,4-benzenedimethanamine] it was 1050 nM.

A further data set relates to potassium peroxochromate arthritis.
Assay: not given
The settings on record: mice, 10 mmol/kg; cited from earlier work.
On to `c1ccc2c(c1)[I+]c1ccccc1-2` [DPI, diphenylene iodoniumchloride], for which the “inhibition of the arthritis” value is given as “Complete inhibition”.

The data set is the same for the next values; noted with them: mice, daily doses of 2.8 μmol/kg; cited from earlier work.
`c1ccc2c(c1)[I+]c1ccccc1-2` [DPI, diphenylene iodoniumchloride]: the “inhibition of the arthritis” value was 50%.

The record behind these values is patent US7476672B2, “Acetylenic compounds useful in treating inflammatory disorders” (Janssen Pharmaceutica N.V., priority 2002, dated 2009).
